In general, Kd refers to the free concentration of one partner at which half of the binding sites on the other are occupied at equilibrium, for simple one-to-one binding. Lower therefore signals tighter binding. By Ki is commonly meant the equilibrium dissociation constant of an inhibitor or competing ligand from its target.

Consider eight molecules from paper PMC9130766 (Frontiers in Pharmacology, 2022).

“Also recorded” adds a separate entry of the source. Like-named read-outs stand apart in the source and are kept apart here.

Experiment [1] has as its target T1, bacterial neuraminidase (BNA) (Clostridium perfringens, UniProt P10481). As to the kind of experiment: biochemical. In kind it is biochemical, C. perfrigens.
Experiment [2] addresses T1, bacterial neuraminidase (BNA). In words: biochemical. In kind it is binding, C. perfrigens.
For experiment [3] the target is unchanged. As to the kind of experiment: biochemical. In kind it is biochemical, C. perfrigens. This is another data set of the same source.
The subject of experiment [4] is E. coli biofilm. In words: Antibiofilm assay (crystal violet staining). Conditions: Escherichia coli, 24 h, 37°C, read-out: concentration giving 50% inhibition of E. coli biofilm production. The experiment is classed as cell-based. The procedure:
A 96-well microtiter plate (polystyrene) was used to measure the anti-biofilm activity as described previously ([Mohanta et al., 2020]). First, 180 μl of DNB and 10 μl of the test pathogens (OD = 1.0, 600 nm) were added to individual wells. Then, 10 μl solutions of ugonin J with different concentrations was added to each well and the contents of each well were mixed thoroughly. The prepared plate was then incubated for 24 h in a static condition at 37°C. After incubation, the supernatant in the wells in the plate was discarded and the residue washed with phosphate buffered saline (pH 7.2) to remove the free-floating non-adherent cells from the wells in the plate. The plate was then air-dried for about 45 min before the bacteria in the wells were fixed with 2% (w/v) sodium acetate. This was followed by flooding the wells with crystal violet stain (0.1%, w/v) and incubation in the dark for 30 min. After this, the wells in the plate were washed with sterile deionized water to remove all dye and allowed to dry. After drying, each well in the plate was filled with 200 μl of ethanol (95%, v/v) and the absorbance of this solution was measured at 620 nm using the SpectraMax M3 Multi-Mode Microplate Reader. All assays were conducted in triplicate and the mean ± standard deviation was calculated. […]

In experiment [5] the target is T1, bacterial neuraminidase (BNA). In kind it is biochemical, C. perfrigens.
The subject of experiment [6] is E. coli. As to the kind of experiment: Cell growth of E. coli (OD 600 nm). Conditions: up to a concentration of 296 µM, compared to the control. The experiment is classed as cell-based, Escherichia coli. The procedure:
Escherichia coli was used in the study. All experiments were conducted in Difco™ Nutrient Broth (DNB) medium at 37°C. The E. coli was removed from glycerol stock at −80 C and transferred to the DNB plate. Next, in a 250 ml flask, a fresh single colony was inoculated into DNB (25 ml) medium and cultured at 37 C with 250 rpm for 24 h. Using the SpectraMaxM3 Multi-Mode Microplate Reader cell growth was found in the presence of different concentrations of compounds at optical densities of 600 nm. All experiments were conducted with at least three independent cultures ([Cho et al., 2013]).
Bacterial biofilms are a serious health concern owing to their abilities to tolerate antibiotics, host defense systems, and other external stresses ([Sharma et al., 2019]). It is generally accepted that neuraminidase participates in biofilm production together with quorum sensing. […] The crystal violet staining method was used for the detection of biofilm production. To investigate biofilm inhibition, E. coli was cultured overnight with or without inhibitor 1 in a 96-well plate.

Setting [7] is: pH 5.0, read-out: IC50, inhibition of bacterial neuraminidase (BNA).
Where [8] appears, read: IC50, inhibition of bacterial neuraminidase (BNA).

T1 sequence (P10481 whole entry, looked up): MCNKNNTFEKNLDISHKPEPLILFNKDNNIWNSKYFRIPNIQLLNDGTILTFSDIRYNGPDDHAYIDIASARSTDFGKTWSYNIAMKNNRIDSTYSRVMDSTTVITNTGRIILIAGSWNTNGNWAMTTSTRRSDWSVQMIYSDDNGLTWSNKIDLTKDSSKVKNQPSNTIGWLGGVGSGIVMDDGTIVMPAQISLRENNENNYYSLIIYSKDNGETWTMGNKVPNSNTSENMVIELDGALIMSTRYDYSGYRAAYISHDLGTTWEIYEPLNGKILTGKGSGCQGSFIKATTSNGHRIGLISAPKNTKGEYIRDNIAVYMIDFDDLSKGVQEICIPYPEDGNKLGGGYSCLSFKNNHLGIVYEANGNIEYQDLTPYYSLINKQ

For `O=C1C[C@@H](c2ccc(O)c(O)c2)Oc2cc(O)cc(O)c21` [Eriodictyol, reference compound], in experiment [1] (setting [7]), the IC50 was found to be 17800 nM.

Take `CC1(C)CCCC2(C)Oc3cc4oc(-c5ccc(O)c(O)c5)cc(=O)c4c(O)c3CC12` (centres unmarked) [Compound 6, ugonin U]: in experiment [2], the “K SV (Stern-Volmer quenching constant)” value stood at 50000 L/mol; the affinity, expressed as Kd, was 33300 nM; the “n (number of binding sites)” value worked out at 1.44. For the same molecule, in experiment [1] (setting [7]), the IC50 stood at 350 nM. Besides, in experiment [3], the Ki stood at 290 nM and the Kinetic mode result is recorded as “Noncompetitive (0.29)”.

Turning to `C=C1CCCC(C)(C)C1Cc1c(O)cc2c(c1O)C(=O)CC(c1ccc(O)c(O)c1)O2` (centres unmarked) [Compound 2, 2-(3,4-dihydroxyphenyl)-6-[(2,2-dimethyl-6 methylenecyclohexyl)methyl]-5,7-dihydroxy-chroman-4-one], in experiment [2], the “K SV (Stern-Volmer quenching constant)” value worked out at 2.53e+06 L/mol, the Kd was 746 nM and the “n (number of binding sites)” value turned out to be 1.01. Also, the “fold greater BNA inhibitive ability than parent (mother) compound” value in experiment [1] is listed as 250 fold. Moreover, the IC50 in experiment [1] (setting [7]) came out at 70 nM. In experiment [3], the affinity, expressed as Ki, was 60 nM and the Kinetic mode entry is reported as “Noncompetitive (0.06)”.

`O=c1c(O)c(-c2ccc(O)c(O)c2)oc2cc(O)cc(O)c12` [Quercetin, reference compound] had an IC50 in experiment [1] (setting [8]) of 20400 nM.

As for `CC1(C)CCC[C@@]2(C)Oc3c(c(O)cc4oc(-c5ccc(O)c(O)c5)cc(=O)c34)C[C@@H]12` [Compound 5, ugonin S], in experiment [2], the “K SV (Stern-Volmer quenching constant)” value turned out to be 70000 L/mol, binding was put at a Kd of 16700 nM and the “n (number of binding sites)” value worked out at 1.24. Further, the IC50 in experiment [1] (setting [8]) was determined as 140 nM. For the same molecule, in experiment [1] (setting [7]), the IC50 was determined as 280 nM. In experiment [3], the Ki amounted to 250 nM and the Kinetic mode result was “Noncompetitive (0.25)”.

For the molecule `CC1=CCCC(C)(C)C1Cc1c(O)c(O)cc2oc3c(=O)c4c(O)cc(O)cc4oc3c12` (centres unmarked) [Compound 4, ugonin M], in experiment [2], the “K SV (Stern-Volmer quenching constant)” value worked out at 810000 L/mol, binding was characterised by a dissociation constant (Kd) of 1180 nM and the “n (number of binding sites)” value was found to be 1.13. In experiment [1] (setting [7]), the IC50 stood at 150 nM. For the same molecule, in experiment [3], the Ki stood at 120 nM and the Kinetic mode entry is reported as “Noncompetitive (0.12)”.

Consider `C=C1CCCC(C)(C)[C@@H]1Cc1c(O)cc2oc(-c3ccc(O)c(O)c3)cc(=O)c2c1O` [Compound 1, ugonin J], for which, in experiment [2], the “K SV (Stern-Volmer quenching constant)” value is 4.77e+06 L/mol; the affinity, expressed as Kd, was 282 nM; the “fluorescence (FS) reduction of BNA” value is reported as “complete FS reduction”; the “n (number of binding sites)” value is recorded as 1.30. The IC50 in experiment [1] (setting [7]) came out at 50 nM. Besides, the IC50 in experiment [4] amounted to 18000 nM. For the same molecule, in experiment [3], the Kinetic mode entry is “noncompetitive inhibitor; also recorded: Noncompetitive (0.05)” and the “reversibility of BNA inhibition” value was “reversible inhibitor”. In experiment [5], the “k 5” value came out at 0.0103 min⁻¹ and the “k 6” value was 0.0486 min⁻¹. In experiment [6], the “growth inhibition of E. coli” value is “no growth inhibition”.

Regarding `O=c1cc(-c2ccc(O)c(O)c2)oc2cc(O)cc(O)c12` [Luteolin, reference compound], the “fluorescence (FS) reduction of BNA” value in experiment [2] is “did not undergo FS reduction”. For the same molecule, the IC50 in experiment [1] (setting [7]) was 4400 nM.
